Target: T1, human neprilysin (EC 3.4.24.11; NEP) (Homo sapiens, UniProt P08473)
T1 construct: purchased R&D Systems, Minneapolis, Minn; 1182-ZN
Assay: In vitro enzyme inhibition assay at human NEP (fluorogenic peptide substrate)
Assay type: biochemical
Details: recombinant human NEP; 37° C.; substrate Mca-D-Arg-Arg-Leu-Dap-(Dnp)-OH 10 μM; values given as ranges; read-out: pKi values at human NEP (converted)
Method: In vitro Assays for the Quantitation of Inhibitor Potencies at Human and Rat NEP, and Human ACE
The inhibitory activities of compounds at human and rat neprilysin (EC 3.4.24.11; NEP) and human angiotensin converting enzyme (ACE) were determined using in vitro assays as described below.
Recombinant human NEP and recombinant human ACE were obtained commercially (R&D Systems, Minneapolis, Minn., catalog numbers 1182-ZN and 929-ZN, respectively). The fluorogenic peptide substrate Mca-D-Arg-Arg-Leu-Dap-(Dnp)-OH (Medeiros et al. (1997) Braz. J. Med. Biol. Res. 30:1157-62; Anaspec, San Jose, Calif.) and Abz-Phe-Arg-Lys(Dnp)-Pro-OH (Araujo et al. (2000) Biochemistry 39:8519-8525; Bachem, Torrance, Calif.) were used in the NEP and ACE assays respectively.
The assays were performed in 384-well white opaque plates at 37° C. using the fluorogenic peptide substrates at a concentration of 10 μM in Assay Buffer (NEP: 50 mM HEPES, pH 7.5, 100 mM NaCl, 0.01% polyethylene glycol sorbitan monolaurate (Tween-20), 10 μM ZnSO4; ACE: 50 mM HEPES, pH 7.5, 100 mM NaCl, 0.01% Tween-20, 1 μM ZnSO4).
Test compounds were assayed over the range of concentrations from 10 μM to 20 pM. Test compounds were added to the enzymes and incubated for 30 minute at 37° C. prior to initiating the reaction by the addition of substrate. Reactions were terminated after 20 minutes of incubation at 37° C. by the addition of glacial acetic acid to a final concentration of 3.6% (v/v).
Plates were read on a fluorometer with excitation and emission wavelengths set to 320 nm and 405 nm, respectively Inhibition constants were obtained by nonlinear regression of the data using the equation (GraphPad Software, Inc., San Diego, Calif.): v=v0/[1+(I/K′)] where v is the reaction rate, v0 is the uninhibited reaction rate, I is the inhibitor concentration and K′ is the apparent inhibition constant.
Compounds of the invention were tested in this assay and found to have pKi values at human NEP as follows.

T1 sequence (P08473 52-750 limits assumed): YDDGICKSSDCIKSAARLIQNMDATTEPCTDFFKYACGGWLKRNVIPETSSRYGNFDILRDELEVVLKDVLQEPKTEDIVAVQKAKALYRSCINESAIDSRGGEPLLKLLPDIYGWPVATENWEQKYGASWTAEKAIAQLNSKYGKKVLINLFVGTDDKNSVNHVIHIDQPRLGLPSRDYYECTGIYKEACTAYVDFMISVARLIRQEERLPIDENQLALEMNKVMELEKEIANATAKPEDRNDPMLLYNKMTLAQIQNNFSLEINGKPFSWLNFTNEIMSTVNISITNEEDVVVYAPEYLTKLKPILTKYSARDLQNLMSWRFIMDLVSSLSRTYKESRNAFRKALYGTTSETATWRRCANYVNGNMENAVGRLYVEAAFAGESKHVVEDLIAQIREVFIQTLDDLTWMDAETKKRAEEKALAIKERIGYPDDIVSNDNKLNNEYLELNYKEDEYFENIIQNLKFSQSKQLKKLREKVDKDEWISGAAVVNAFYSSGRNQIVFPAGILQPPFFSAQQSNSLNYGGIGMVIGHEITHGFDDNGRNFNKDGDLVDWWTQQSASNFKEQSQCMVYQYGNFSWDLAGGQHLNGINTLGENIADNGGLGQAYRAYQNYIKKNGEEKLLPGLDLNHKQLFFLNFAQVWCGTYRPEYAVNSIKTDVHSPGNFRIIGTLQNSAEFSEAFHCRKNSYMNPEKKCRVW

Ki	Structure (SMILES)
12.6 to 100 nM	O=C(N[C@H](Cc1ccccc1)[C@@H](O)C(=O)O)c1cccc(-c2ccccc2C(=O)O)c1 [Example 10-9, 3′-((1R,2R)-1-Benzyl-2-carboxy-2-hydroxy-ethylcarbamoyl)-biphenyl-2-carboxylic acid]
12.6 to 100 nM	O=C(N[C@H](Cc1ccccc1)[C@@H](O)C(=O)O)c1cccc(-c2ccc(F)cc2C(=O)O)c1 [Example 10-10, 3′-((1R,2R)-1-Benzyl-2-carboxy-2-hydroxy-ethylcarbamoyl)-4-fluoro-biphenyl-2-carboxylic acid]
12.6 to 100 nM	O=C(N[C@H](Cc1ccccc1)[C@@H](O)C(=O)O)c1cccc(-c2ccc(Cl)cc2C(=O)O)c1 [Example 10-11, 3′-((1R,2R)-1-Benzyl-2-carboxy-2-hydroxy-ethylcarbamoyl)-4-chloro-biphenyl-2-carboxylic acid]
12.6 to 100 nM	O=C(N[C@H](Cc1ccccc1)[C@@H](O)C(=O)O)c1cccc(-c2cc(Cl)ccc2C(=O)O)c1 [Example 10-12, 3′-((1R,2R)-1-Benzyl-2-carboxy-2-hydroxy-ethylcarbamoyl)-5-chloro-biphenyl-2-carboxylic acid]
12.6 to 100 nM	COc1ccc(C(=O)O)c(-c2cccc(C(=O)N[C@H](Cc3ccccc3)[C@@H](O)C(=O)O)c2)c1 [Example 10-13, 3′-((1R,2R)-1-Benzyl-2-carboxy-2-hydroxy-ethylcarbamoyl)-5-methoxy-biphenyl-2-carboxylic acid]
12.6 to 100 nM	O=C(N[C@H](Cc1ccccc1)[C@@H](O)C(=O)O)c1cccc(-c2cc(F)ccc2C(=O)O)c1 [Example 10-14, 3′-((1R,2R)-1-Benzyl-2-carboxy-2-hydroxy-ethylcarbamoyl)-5-fluoro-biphenyl-2-carboxylic acid]
1.26 to 10 nM	Cc1ccc(C(=O)N[C@H](Cc2ccccc2)[C@@H](O)C(=O)O)cc1-c1ccccc1C(=O)O [Example 10-15, 5′-((1R,2R)-1-Benzyl-2-carboxy-2-hydroxy-ethylcarbamoyl)-2′-methyl-biphenyl-2-carboxylic acid]
1.26 to 10 nM	CC(C)c1ccc(C(=O)N[C@H](Cc2ccccc2)[C@@H](O)C(=O)O)cc1-c1ccccc1C(=O)O [Example 10-17, 5′-((1R,2R)-1-Benzyl-2-carboxy-2-hydroxy-ethylcarbamoyl)-2′-isopropyl-biphenyl-2-carboxylic acid]
1.26 to 10 nM	CCc1ccc(C(=O)N[C@H](Cc2ccccc2)[C@@H](O)C(=O)O)cc1-c1ccccc1C(=O)O [Example 10-19, 5′-((1R,2R)-1-Benzyl-2-carboxy-2-hydroxy-ethylcarbamoyl)-2′-ethyl-biphenyl-2-carboxylic acid]
12.6 to 100 nM	Cc1ccc(C(=O)N[C@H](Cc2ccccc2)[C@@H](O)C(=O)O)cc1-c1ccccc1CC(=O)O [Example 10-20, (2R,3R)-3-[(2′-Carboxymethyl-6-methyl-biphenyl-3-carbonyl)-amino]-2-hydroxy-4-phenyl-butyric acid]
12.6 to 100 nM	O=C(N[C@H](Cc1ccccc1)[C@@H](O)C(=O)O)c1ccc(N2CCOCC2)c(-c2ccccc2C(=O)O)c1 [Example 10-21, 5′-((1R,2R)-1-Benzyl-2-carboxy-2-hydroxy-ethylcarbamoyl)-2′-morpholin-4-yl-biphenyl-2-carboxylic acid]
1.26 to 10 nM	O=C(N[C@H](Cc1ccccc1)[C@@H](O)C(=O)O)c1ccc(Cl)c(-c2ccccc2C(=O)O)c1 [Example 10-22, 5′-((1R,2R)-1-Benzyl-2-carboxy-2-hydroxy-ethylcarbamoyl)-2′-chloro-biphenyl-2-carboxylic acid]
12.6 to 100 nM	O=C(N[C@H](Cc1ccccc1)[C@@H](O)C(=O)O)c1cc(O)cc(-c2ccccc2C(=O)O)c1 [Example 10-24, 3′-((1R,2R)-1-Benzyl-2-carboxy-2-hydroxy-ethylcarbamoyl)-5′-hydroxy-biphenyl-2-carboxylic acid]
1.26 to 10 nM	O=C(N[C@H](Cc1ccccc1)[C@@H](O)C(=O)O)c1cc(F)cc(-c2ccccc2C(=O)O)c1 [Example 10-25, 3′-((1R,2R)-1-Benzyl-2-carboxy-2-hydroxy-ethylcarbamoyl)-5′-fluoro-biphenyl-2-carboxylic acid]
1.26 to 10 nM	O=C(N[C@H](Cc1ccccc1)[C@@H](O)C(=O)O)c1cc(Cl)cc(-c2ccccc2C(=O)O)c1 [Example 10-26, 3′-((1R,2R)-1-Benzyl-2-carboxy-2-hydroxy-ethylcarbamoyl)-5′-chloro-biphenyl-2-carboxylic acid]
12.6 to 100 nM	Cc1cc(C(=O)N[C@H](Cc2ccccc2)[C@@H](O)C(=O)O)cc(-c2ccccc2C(=O)O)c1 [Example 10-27, 3′-((1R,2R)-1-Benzyl-2-carboxy-2-hydroxy-ethylcarbamoyl)-5′-methyl-biphenyl-2-carboxylic acid]
12.6 to 100 nM	O=C(N[C@H](Cc1ccccc1)[C@@H](O)C(=O)O)c1ccc(-c2ccccc2)c(C(=O)O)c1 [Example 10-28, 4-((1R,2R)-1-Benzyl-2-carboxy-2-hydroxy-ethylcarbamoyl)-biphenyl-2-carboxylic acid]
12.6 to 100 nM	O=C(O)c1cc(C(=O)N[C@H](Cc2ccccc2)[C@@H](O)C(=O)O)cc(-c2ccccc2)c1 [Example 10-29, 5-((1R,2R)-1-Benzyl-2-carboxy-2-hydroxy-ethylcarbamoyl)-biphenyl-3-carboxylic acid]
12.6 to 100 nM	NS(=O)(=O)c1cccc(-c2cccc(C(=O)N[C@H](Cc3ccccc3)[C@@H](O)C(=O)O)c2)c1 [Example 10-30, (2R,3R)-2-Hydroxy-4-phenyl-3-[(3′-sulfamoyl-biphenyl-3-carbonyl)-amino]-butyric acid]
12.6 to 100 nM	O=C(N[C@H](Cc1ccccc1)[C@@H](O)C(=O)O)c1cccc(-c2cccc(-c3nnn[nH]3)c2)c1 [Example 10-31, (2R,3R)-2-Hydroxy-4-phenyl-3-{[3′-(1H-tetrazol-5-yl)-biphenyl-3-carbonyl]-amino}-butyric acid]
12.6 to 100 nM	CCc1ccc(C(=O)N[C@H](Cc2ccccc2)[C@@H](O)C(=O)O)cc1 [Example 10-32, (2R,3R)-3-(4-Ethyl-benzoylamino)-2-hydroxy-4-phenyl-butyric acid]
12.6 to 100 nM	CCCc1ccc(C(=O)N[C@H](Cc2ccccc2)[C@@H](O)C(=O)O)cc1 [Example 10-33, (2R,3R)-2-Hydroxy-4-phenyl-3-(4-propyl-benzoylamino)-butyric acid]
12.6 to 100 nM	CC(C)c1ccc(C(=O)N[C@H](Cc2ccccc2)[C@@H](O)C(=O)O)cc1 [Example 10-34, (2R,3R)-2-Hydroxy-3-(4-isopropyl-benzoylamino)-4-phenyl-butyric acid]
12.6 to 100 nM	CCCCc1ccc(C(=O)N[C@H](Cc2ccccc2)[C@@H](O)C(=O)O)cc1 [Example 10-35, (2R,3R)-3-(4-Butyl-benzoylamino)-2-hydroxy-4-phenyl-butyric acid]
12.6 to 100 nM	CC(C)Cc1ccc(C(=O)N[C@H](Cc2ccccc2)[C@@H](O)C(=O)O)cc1 [Example 10-36, (2R,3R)-2-Hydroxy-3-(4-isobutyl-benzoylamino)-4-phenyl-butyric acid]
12.6 to 100 nM	CCCCCc1ccc(C(=O)N[C@H](Cc2ccccc2)[C@@H](O)C(=O)O)cc1 [Example 10-38, (2R,3R)-2-Hydroxy-3-(4-pentyl-benzoylamino)-4-phenyl-butyric acid]
12.6 to 100 nM	O=C(N[C@H](Cc1ccccc1)[C@@H](O)C(=O)O)c1ccc(C2CC2)cc1 [Example 10-39, (2R,3R)-3-(4-Cyclopropyl-benzoylamino)-2-hydroxy-4-phenyl-butyric acid]
